Where two headings read alike, the source gives them in different places.
Columns and labels:
[1] = tested on: resistant E. coli; assay: MIC in Mueller-Hinton II broth, antibiotic + BisEDT; format: cell-based, Escherichia coli
Excerpt: Chloramphenicol and ampicillin resistant Escherichia coli were made sensitive to these drugs by the addition of subMIC BisEDT (Table 24).
Tetracycline resistant Escherichia coli were made sensitive to doxycycline by the addition of subMIC BisEDT (Table 25).

[2] = tested on: S. aureus; assay: Broth dilution MIC/MBC, BT-antibiotic combinations; format: cell-based, Staphylococcus aureus
Experimental: (§1) Materials & Methods. Susceptibility studies were performed by broth dilution in 96-well tissue culture plates (Nalge Nunc International, Denmark) in accordance with NCCLS protocols (National Committee for Clinical Laboratory Standards. (1997). Methods for Dilution Antimicrobial Susceptibility Tests for Bacteria that Grow Aerobically: Approved Standard M7-A2 and Informational Supplement M100-S10. NCCLS, Wayne, Pa., USA).
(§2) Briefly, overnight bacterial cultures were used to prepare 0.5 McFarland standard suspensions, which were further diluted 1:50 (˜2×10^6 cfu/mL) in cation-adjusted Mueller-Hinton broth medium (BBL, Cockeysville, Md., USA). BTs (prepared as described above) and antibiotics were added at incremental concentrations, keeping the final volume constant at 0.2 mL. Cultures were incubated for 24 h at 37° C. and turbidity was assessed by absorption at 630 nm using an ELISA plate reader (Biotek Instruments, Winooski, Vt., USA) according to the manufacturer's recommendations. […] Viable bacterial counts (cfu/mL) were determined by standard plating on nutrient agar.
(§3) The checkerboard method was used to assess the activity of antimicrobial combinations. The fractional inhibitory concentration index (FICI) and the fractional bactericidal concentration index (FBCI) were calculated, according to Eliopoulos et al. (Eliopoulos and Moellering, (1996) Antimicrobial combinations. In Antibiotics in Laboratory Medicine (Lorian, V., Ed.), pp. 330-96, Williams and Wilkins, Baltimore, Md., USA). Synergy was defined as an FICI or FBCI index of […], no interaction at >0.5-4 and antagonism at >4 (Odds, F C (2003) Synergy, antagonism, and what the chequerboard puts between them. Journal of Antimicrobial Chemotherapy 52:1). Synergy was also defined conventionally as ≧4-fold decrease in antibiotic concentration.

[3] = tested on: S. epidermidis (methicillin-susceptible and methicillin-resistant); assay: Graft infection rat model, quantitative graft culture; format: in vivo; conditions: rats, s.c. Dacron graft, explanted at 7 days, 0.1 mg/l BTs, 10 mg/l RIP, 10 mg/l rifampin
Experimental: As summarized in Table 21, implants impregnated with 0.1 μg/ml BisEDT, 10 μg/ml RIP and 10 μg/ml rifampin, alone or combined were implanted s.c. into rats. Physiological solution (1 ml) containing the MS and MR strains at 2×10^7 cfu/ml was inoculated onto the graft surface using a tuberculin syringe. All grafts were explanted at 7 days following implantation and sonicated for 5 minutes in sterile saline solution to remove the adherent bacteria. Quantitation of viable bacteria was obtained by culturing dilutions on blood agar plates. The limit of detection was approximately 10 cfu/cm^2.

[4] = tested on: S. epidermidis; assay: Growth inhibition (MIC) and MBC, BisEDT and antibiotics; format: cell-based, Staphylococcus epidermidis
Excerpt: Results are expressed as the mean change in MIC (dilution steps) with increasing BisEDT (n=3). See legend in FIG. 5 for antibiotic definitions.
The MIC change was most pronounced for clindamycin and gentamicin, followed by vancomycin, cefazolin, minocycline, gatifloxacin and nafcillin, with rifampicin unaffected.
Minimum bactericidal concentration (MBC) for most antibiotics tested against S. epidermidis decreased slightly with subMIC BisEDT. […] Clindamycin is a bacteriostatic agent, which explains its lack of bactericidal activity. Cefazolin resistance was reversed with respect to the MBC [Domenico et al., 2003]. These effects were additive.

[5] = tested on: S. epidermidis biofilm; assay: Biofilm prevention concentration (BPC), BisEDT and antibiotics; format: cell-based, Staphylococcus epidermidis; conditions: 0.05 μg/ml BisEDT
Experimental: (§4) S. epidermidis grown in TSB+2% glucose in polystyrene plates for 48 h at 37° C. Gatifloxacin (GF), clindamycin (CM), minocycline (MC), gentamicin (GM), vancomycin (VM), cefazolin (CZ), nafcillin (NC), and rifampicin (RP). […]

[6] = tested on: S. epidermidis S2400-1 biofilm; assay: Biofilm prevention, BisEDT-antibiotic combinations; format: cell-based, Staphylococcus epidermidis
Experimental: as §4

[7] = tested on: S. epidermidis; assay: Broth dilution MIC/MBC, BT-antibiotic combinations; format: cell-based, Staphylococcus epidermidis
Experimental: as §1, §2, §3

[8] = tested on: Streptococcus pneumoniae (SP, PRSP); assay: Single-point BisEDT-antibiotic combination FICI; conditions: PRSP 5348
[9] = tested on: Acinetobacter baumanii; assay: Single-point BisEDT-antibiotic combination FICI; format: cell-based; conditions: Abau 2594
[10] = tested on: Staphylococcus aureus (SA, MRSA); assay: Single-point BisEDT-antibiotic combination FICI; format: cell-based
[11] = tested on: B. cepacia (B. multivorans, B. cenocepacia); assay: MIC and FIC index, tobramycin + BisEDT; format: cell-based, Burkholderia cepacia; conditions: 0.4 μg/ml BisEDT
[12] = tested on: Klebsiella pneumoniae; assay: Single-point BisEDT-antibiotic combination FICI; format: cell-based; conditions: KP 1231
[13] = tested on: Enterococcus faecalis; assay: Single-point BisEDT-antibiotic combination FICI; format: cell-based; conditions: E Fc 3121
[14] = tested on: Pseudomonas aeruginosa; assay: Single-point BisEDT-antibiotic combination FICI; format: cell-based; conditions: PA 1380
[15] = tested on: Bukholderia multivorans; assay: Single-point BisEDT-antibiotic combination FICI; format: cell-based; conditions: Bmult 5665
[16] = tested on: Burkholderia cepacia; assay: Single-point BisEDT-antibiotic combination FICI; format: cell-based; conditions: Bcep 1756
[17] = tested on: Escherichia coli; assay: Single-point BisEDT-antibiotic combination FICI; format: cell-based; conditions: EC 2232
[18] = S. aureus ATCC 25923, BE = 0.2 μg/ml BisEDT
[19] = S. epidermidis S2400-1, BisEDT 0.1 μg/ml
[20] = tobramycin-resistant Burkholderia cepacia

Question: With CC1(C)S[C@@H]2[C@H](NC(=O)[C@H](N)c3ccccc3)C(=O)N2[C@H]1C(=O)O [AM, ampicillin] as the compound, how does the MIC ([1]; Escherichia coli, read-out: Drug + BE MIC, Chloramphenicol/Ampicillin resistant E. coli, BE 0.33 μg/ml) read?
Answer: 49 µg/mL

Question: Which “FIC, doxycycline + subMIC BisEDT” value ([1]; E. coli TET M and TET D strains) does the source give for C[C@H]1c2cccc(O)c2C(=O)C2=C(O)[C@]3(O)C(=O)C(C(N)=O)=C(O)[C@@H](N(C)C)[C@@H]3[C@@H](O)[C@@H]21 [DOX, doxycycline] here?
Answer: 0.5

Question: How did the Δ ([2]; MRSA S2446-3, BE = 0.2 μg/ml BisEDT) turn out when CO[C@H]1/C=C/O[C@@]2(C)Oc3c(C)c(O)c4c(O)c(c(/C=N/N5CCN(C)CC5)c(O)c4c3C2=O)NC(=O)/C(C)=C\C=C\[C@H](C)[C@H](O)[C@@H](C)[C@@H](O)[C@@H](C)[C@H](OC(C)=O)[C@@H]1C [Rifampin] was run?
Answer: 1.0

Question: What about the Synergy [2, 18] of the same compound?
Answer: + (Synergy was also defined conventionally as ≧4-fold decrease in antibiotic concentration)

Question: And the Δ [2, 18]?
Answer: 13.0

Question: And the MIC ([2]; Staphylococcus aureus, ATCC25923, S. aureus ATCC 25923, antibiotic alone, read-out: MIC)?
Answer: 0.033 µg/mL

Question: What about the MIC ([2]; Staphylococcus aureus, ATCC25923, S. aureus ATCC 25923, with 0.2 μg/ml BisEDT, read-out: MIC + BE) of the same compound?
Answer: 0.003 µg/mL

Question: And the MIC ([2]; Staphylococcus aureus, MRSA, MRSA S2446-3, antibiotic alone, read-out: MIC)?
Answer: 2.5 µg/mL

Question: And the MIC ([2]; Staphylococcus aureus, MRSA, MRSA S2446-3, with 0.2 μg/ml BisEDT, read-out: MIC + BE)?
Answer: 2.5 µg/mL

Question: And the Quantitative graft culture ([3]; methicillin-resistant S. epidermidis)?
Answer: 7.6 × 10^4 ± 2.1 × 10^4 cfu/cm^2

Question: What about the Quantitative graft culture ([3]; methicillin-susceptible S. epidermidis) of the same compound?
Answer: 5.9 × 10^3 ± 1.8 × 10^3 cfu/cm^2

Question: What about the “Reduction in MBC with subMIC BisEDT” value [4] of the same compound?
Answer: remained largely unaffected

Question: What about the “MIC change (growth inhibition) with BisEDT” value ([4]; 0.1 μg/ml (0.5 μM) BisEDT) of the same compound?
Answer: unaffected

Question: And the “Change of biofilm prevention concentration (BPC)” value [5]?
Answer: remained unaffected

Question: What about the “Δ (0.05 BE), biofilm prevention” value ([6]; 0.05 μg/ml BisEDT) of the same compound?
Answer: 0.7

Question: And the “Biofilm Prevention (antibiotic concentration)” value ([6]; BisEDT 0 μg/ml)?
Answer: 0.03 µg/mL

Question: What about the “Biofilm Prevention (antibiotic concentration)” value ([6]; BisEDT 0.05 μg/ml) of the same compound?
Answer: 0.04 µg/mL

Question: And the “Biofilm Prevention (antibiotic concentration)” value ([6]; BisEDT 0.1 μg/ml)?
Answer: 0.04 µg/mL

Question: And the “Δ, MIC” value ([7]; S. epidermidis ATCC 35984, 0.05 μg/ml BisEDT)?
Answer: 1.5

Question: And the MIC ([7]; S. epidermidis ATCC 35984, BisEDT 0.0 μg/ml)?
Answer: 0.021 µg/mL

Question: What about the MIC ([7]; S. epidermidis ATCC 35984, BisEDT 0.05 μg/ml) of the same compound?
Answer: 0.014 µg/mL

Question: What about the “Δ (0.05 BE), MIC” value ([7]; S. epidermidis S2400-1, 0.05 μg/ml BisEDT) of the same compound?
Answer: 0.75

Question: What about the “Δ (0.1 BE), MBC” value ([7]; S. epidermidis S2400-1, 0.1 μg/ml BisEDT) of the same compound?
Answer: 0.43

Question: And the MIC ([7]; S. epidermidis S2400-1, BisEDT 0 μg/ml)?
Answer: 0.03 µg/mL

Question: What about the MBC ([7]; S. epidermidis S2400-1, BisEDT 0.0 μg/ml) of the same compound?
Answer: 0.03 µg/mL

Question: And the MIC ([7]; S. epidermidis S2400-1, BisEDT 0.05 μg/ml)?
Answer: 0.04 µg/mL

Question: And the MBC [7, 19]?
Answer: 0.07 µg/mL

Question: What about the MIC [7, 19] of the same compound?
Answer: 0.04 µg/mL

Question: For NC[C@H]1O[C@H](O[C@H]2[C@H](O)[C@@H](O[C@H]3O[C@H](CO)[C@@H](O)[C@H](N)[C@H]3O)[C@H](N)C[C@@H]2N)[C@H](N)C[C@@H]1O [Tobramycin], which “FICI, single-point BisEDT-antibiotic combination” value [8] is on record?
Answer: 0.57

Question: What about the MBC ([2]; Staphylococcus aureus, Tobramycin resistant strains table, S. aureus SA-29213, read-out: NN MBC) of the same compound?
Answer: 2 µg/mL

Question: What about the MIC ([2]; Staphylococcus aureus, Tobramycin resistant strains table, S. aureus SA-29213, read-out: NN MIC) of the same compound?
Answer: 2 µg/mL

Question: What about the “FICI, single-point BisEDT-antibiotic combination” value [9] of the same compound?
Answer: 1.12

Question: And the “FICI, single-point BisEDT-antibiotic combination” value ([10]; MRSA 773)?
Answer: 0.78

Question: What about the “FICI, single-point BisEDT-antibiotic combination” value ([10]; SA 100) of the same compound?
Answer: 0.73

Question: What about the “Isolates rendered tobramycin sensitive” value [11] of the same compound?
Answer: seven of 10

Question: What about the “Fold reduction of tobramycin MIC90” value [11, 20] of the same compound?
Answer: 10 fold

Question: What about the “mean FIC” value [11, 20] of the same compound?
Answer: 0.48

Question: And the “FICI, single-point BisEDT-antibiotic combination” value [12]?
Answer: 0.87

Question: And the “FICI, single-point BisEDT-antibiotic combination” value [13]?
Answer: 0.47

Question: And the “FICI, single-point BisEDT-antibiotic combination” value [14]?
Answer: 1.29

Question: And the “FICI, single-point BisEDT-antibiotic combination” value [15]?
Answer: 0.67

Question: What about the “FICI, single-point BisEDT-antibiotic combination” value [16] of the same compound?
Answer: 0.91

Question: What about the “FICI, single-point BisEDT-antibiotic combination” value [17] of the same compound?
Answer: 0.96

— patent US9408393B2, “Bismuth-thiols as antiseptics for agricultural, industrial and other uses” (Microbion Corporation, priority 2010, dated 2016)
